How the values were obtained:
Assay type in all cases: in vivo
[1] = system: Lolium rigidum; assay: Post-emergence herbicidal action against Lolium rigidum
Summary of the method: (§1)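 Assessment time was recorded as days after application. Activity for mixtures was set against E^C, the Colby expected value, and against E^A, the total of the effects from each component applied alone; application rates were in g of active substance per hectare.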

[2] = system: Echinochloa crus-galli; assay: Post-emergence herbicidal action against Echinochloa crus-galli; settings: 21 DAT; 30 g of a.i./ha
Summary of the method: (§2)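 Seeds or rhizome pieces were grown in sandy loam in pots in a greenhouse, and plants were sprayed at the three-leaf stage, three weeks after sowing. Spray powders or emulsion concentrates were applied in various dosages at 300 to 800 l/ha water. Efficacy was scored visually after 3 to 4 weeks against untreated controls.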

[3] = system: Viola tricolor; assay: Post-emergence herbicidal action against Viola tricolor
From the text: (§3) The following abbreviations are used in the description and the tables that follow: • g of a.i./ha=grams of active substance (active ingredient) (=100% active compound) per hectare; • The sum total of the effects of the individual applications is reported under E^A; • expected values according to Colby are each reported under E^C.
(§4) The rating period is reported in days after application (DAT).

[4] = system: Matricaria inodora; assay: Post-emergence herbicidal action against Matricaria inodora
[5] = system: Digitaria sanguinalis; assay: Post-emergence herbicidal action against Digitaria sanguinalis; settings: (Z61) post-emergence; g of a.i./ha: 180, 100, 100 + 180
Summary of the method: as §2

[6] = system: Bromus sterilis; assay: Post-emergence herbicidal action against Bromus sterilis
Summary of the method: as §1

[7] = system: Lamium purpureum; assay: Post-emergence herbicidal action against Lamium purpureum
Summary of the method: as §2

[8] = system: Digitaria horizontalis; assay: Post-emergence herbicidal action against Digitaria horizontalis; settings: (Z61) post-emergence; g of a.i./ha: 200, 100, 100 + 200
From the text: as §3, §4

[9] = system: Kochia scoparia; assay: Post-emergence herbicidal action against Kochia scoparia; settings: g of a.i./ha by row: 30, 5, 5 + 30
From the text: as §3, §4

[10] = system: Brachiaria plantaginea; assay: Post-emergence herbicidal action against Brachiaria plantaginea; settings: (Z61) post-emergence; g of a.i./ha: 200, 100, 100 + 200
From the text: as §3, §4

[11] = system: Amaranthus palmeri; assay: Post-emergence herbicidal action against Amaranthus palmeri; settings: 21 DAT; 30 g of a.i./ha
Summary of the method: as §2

[12] = system: Veronica hederifolia; assay: Post-emergence herbicidal action against Veronica hederifolia; settings: g of a.i./ha: 16, 270, 16 + 270
From the text: as §3, §4

[13] = system: Brachiaria decumbens; assay: Post-emergence herbicidal action against Brachiaria decumbens; settings: g of a.i./ha: 200, 100, 100 + 200
From the text: as §3, §4

[14] = system: Sorghum halepense; assay: Post-emergence herbicidal action against Sorghum halepense
Summary of the method: as §2

[15] = system: Lolium rigidum (resistant biotype); assay: Post-emergence herbicidal action against Lolium rigidum (resistant biotype)
Summary of the method: as §1

[16] = system: Galium aparine; assay: Post-emergence herbicidal action against Galium aparine
Summary of the method: as §2

[17] = system: Alopecurus myosuroides; assay: Post-emergence herbicidal action against Alopecurus myosuroides
Summary of the method: as §1

[18] = system: Setaria viridis; assay: Post-emergence herbicidal action against Setaria viridis; settings: 21 DAT
Method: When the observed efficacies exceed the formal sum total of the values of the tests with individual applications, they also exceed the expected value according to Colby, which is calculated using the formula below and is likewise regarded as an indication of synergism (cf. S. R. Colby; in Weeds 15 (1967) p. 20 to 22): E^C=A+B−([…])
Here: • A=efficacy of the active compound (A) in % at an application rate of a g a.i./ha; • B=efficacy of the active compound (B) in % at an application rate of b g a.i./ha; • E^C=expected value of the effect of the combination (A)+(B) in % at the combined application rate a+b g a.i./ha.
Seeds or rhizome pieces of mono- and dicotyledonous weeds are placed in sandy loam in pots, covered with soil and grown in a greenhouse under good growth conditions (temperature, air humidity, water supply). Three weeks after sowing, the test plants were treated at the three-leaf stage with the compositions according to the invention. The compositions according to the invention formulated as spray powders or as emulsion concentrates were sprayed onto the green plant parts in various dosages with an application rate of 300 to 800 l/ha of water (equivalent). After the test plants have been left to stand in the greenhouse under optimal growth conditions for about 3 to 4 weeks, the action of the preparations is scored visually in comparison to untreated controls. The compositions according to the invention also have good post-emergence herbicidal activity against a broad spectrum of economically important gramineous and broadleaf weeds.

[19] = (Z61) post-emergence, g of a.i./ha: 4, 1, 270, 90, 4 + 270, 4 + 90, 1 + 270, 1 + 90, 90 g of a.i./ha
[20] = (Z61) post-emergence, g of a.i./ha: 4, 1, 270, 90, 4 + 270, 4 + 90, 1 + 270, 1 + 90, 270 g of a.i./ha
[21] = (Z61) post-emergence, g of a.i./ha by row: 4, 1, 270, 90, 4 + 270, 1 + 270, 1 + 90, 90 g of a.i./ha
[22] = (Z61) post-emergence, g of a.i./ha by row: 4, 1, 270, 90, 4 + 270, 1 + 270, 1 + 90, 270 g of a.i./ha
[23] = (Z119) post-emergence, g of a.i./ha: 1, 270, 1 + 270

SMILES: O=C(Nc1ccc(F)cc1F)c1cccnc1Oc1cccc(C(F)(F)F)c1 [(B2.18) Diflufenican]
- Herbicidal action 28 DAT against Lolium rigidum ([1]; 90 g of a.i./ha): 0%
- Herbicidal action 28 DAT against Lolium rigidum ([1]; 270 g of a.i./ha): 0%
- Herbicidal action 14 DAT against Lolium rigidum ([1]; (Z61) post-emergence, g of a.i./ha: 1, 270, 90, 30, 1 + 270, 1 + 90, 1 + 30, 30 g of a.i./ha): 0%
- Herbicidal action 14 DAT against Lolium rigidum ([1]; (Z61) post-emergence, g of a.i./ha: 1, 270, 90, 30, 1 + 270, 1 + 90, 1 + 30, 270 g of a.i./ha): 10%
- Herbicidal action 28 DAT against Lolium rigidum [1, 19]: 15%
- Herbicidal action 28 DAT against Lolium rigidum [1, 20]: 20%
- Herbicidal action 14 DAT against Lolium rigidum ([1]; (Z119) post-emergence, g of a.i./ha by row: 16, 1, 90, 270, 16 + 90, 1 + 270): 5%
- Herbicidal action 28 DAT against Lolium rigidum ([1]; (Z119) post-emergence, g of a.i./ha: 16, 4, 1, 270, 90, 30, 16 + 270, 16 + 90, 16 + 30, 4 + 270, 4 + 90, 4 + 30, 1 + 270): 0%
- Herbicidal action against Echinochloa crus-galli [2]: 10%
- Herbicidal action 28 DAT against Viola tricolor ([3]; (Z61) post-emergence, g of a.i./ha: 16, 1, 30, 16 + 30, 1 + 30): 40%
- Herbicidal action 14 DAT against Viola tricolor ([3]; (Z119) post-emergence, g of a.i./ha: 16, 270, 16 + 270): 40%
- Herbicidal action 14 DAT against Matricaria inodora ([4]; 90 g of a.i./ha): 50%
- Herbicidal action 28 DAT against Matricaria inodora ([4]; (Z61) post-emergence, g of a.i./ha: 4, 1, 30, 4 + 30, 1 + 30): 0%
- Herbicidal action 28 DAT against Matricaria inodora ([4]; (Z119) post-emergence, g of a.i./ha by row: 16, 4, 270, 90, 16 + 270, 4 + 90): 50%
- Herbicidal action 37 DAT against Digitaria sanguinalis [5]: 0%
- Herbicidal action 14 DAT against Bromus sterilis [6, 21]: 10%
- Herbicidal action 14 DAT against Bromus sterilis [6, 22]: 15%
- Herbicidal action 28 DAT against Bromus sterilis ([6]; (Z61) post-emergence, g of a.i./ha: 1, 270, 90, 1 + 270, 1 + 90, 90 g of a.i./ha): 15%
- Herbicidal action 28 DAT against Bromus sterilis ([6]; (Z61) post-emergence, g of a.i./ha: 1, 270, 90, 1 + 270, 1 + 90, 270 g of a.i./ha): 20%
- Herbicidal action 28 DAT against Bromus sterilis [6, 23]: 0%
- Herbicidal action 14 DAT against Bromus sterilis ([6]; (Z119) post-emergence, g of a.i./ha: 1, 270, 90, 1 + 270, 1 + 90): 5%
- Herbicidal action 28 DAT against Bromus sterilis ([6]; (Z148) post-emergence, g of a.i./ha: 1, 270, 90, 30, 1 + 270, 1 + 90, 1 + 30): 0%
- Herbicidal action 14 DAT against Bromus sterilis ([6]; (Z148) post-emergence, g of a.i./ha: 4, 1, 270, 90, 30, 4 + 270, 4 + 90, 4 + 30, 1 + 30, 30 g of a.i./ha): 0%
- Herbicidal action 14 DAT against Bromus sterilis ([6]; (Z148) post-emergence, g of a.i./ha: 4, 1, 270, 90, 30, 4 + 270, 4 + 90, 4 + 30, 1 + 30, 270 g of a.i./ha): 5%
- Herbicidal action 14 DAT against Lamium purpureum L. ([7]; 30 g of a.i./ha): 20%
- Herbicidal action 28 DAT against Lamium purpureum L. ([7]; 30 g of a.i./ha): 10%
- Herbicidal action 28 DAT against Lamium purpureum L. ([7]; 90 g of a.i./ha): 20%
- Herbicidal action 28 DAT against Lamium purpureum L. ([7]; (Z61) post-emergence, g of a.i./ha by row: 4, 1, 270, 30, 90, 4 + 270, 4 + 30, 1 + 270, 1 + 90, 1 + 30): 20%
- Herbicidal action 14 DAT against Lamium purpureum L. ([7]; (Z119) post-emergence, g of a.i./ha by row: 16, 30, 16 + 30): 20%
- Herbicidal action 28 DAT against Digitaria horizontalis [8]: 0%
- Herbicidal action 21 DAT against Kochia scoparia [9]: 25%
- Herbicidal action 28 DAT against Brachiaria plantaginea [10]: 0%
- Herbicidal action against Amaranthus palmeri (res.) [11]: 40%
- Herbicidal action 14 DAT against Veronica hederifolia [12]: 85%
- Herbicidal action 28 DAT against Brachiaria decumbens [13]: 0%
- Herbicidal action against Sorghum halepense ([14]; 21 DAT, 30 g of a.i./ha): 10%
- Herbicidal action 21 DAT against Sorghum halepense ([14]; (Z3) post-emergence, g of a.i./ha: 90, 30, 15, 5, 15 + 90, 5 + 90, 15 + 30, 5 + 30): 10%
- Herbicidal action 28 DAT against Lolium rigidum (resistant biotype) ([15]; 30 g of a.i./ha): 0%
- Herbicidal action 28 DAT against Lolium rigidum (resistant biotype) ([15]; 90 g of a.i./ha): 0%
- Herbicidal action 28 DAT against Lolium rigidum (resistant biotype) ([15]; 270 g of a.i./ha): 0%
- Herbicidal action 14 DAT against Lolium rigidum (resistant biotype) [15, 21]: 0%
- Herbicidal action 14 DAT against Lolium rigidum (resistant biotype) [15, 22]: 10%
- Herbicidal action 28 DAT against Lolium rigidum (resistant biotype) ([15]; (Z61) post-emergence, g of a.i./ha: 4, 1, 270, 90, 4 + 270, 1 + 90, 90 g of a.i./ha): 10%
- Herbicidal action 28 DAT against Lolium rigidum (resistant biotype) ([15]; (Z61) post-emergence, g of a.i./ha: 4, 1, 270, 90, 4 + 270, 1 + 90, 270 g of a.i./ha): 20%
- Herbicidal action 14 DAT against Lolium rigidum (resistant biotype) ([15]; (Z119) post-emergence, g of a.i./ha by row: 16, 1, 90, 30, 270, 16 + 90, 16 + 30, 1 + 270, 30 g of a.i./ha): 0%
- Herbicidal action 14 DAT against Lolium rigidum (resistant biotype) ([15]; (Z119) post-emergence, g of a.i./ha by row: 16, 1, 90, 30, 270, 16 + 90, 16 + 30, 1 + 270, 90 g of a.i./ha): 5%
- Herbicidal action 28 DAT against Lolium rigidum (resistant biotype) [15, 23]: 0%
- Herbicidal action 28 DAT against Galium aparine ([16]; 30 g of a.i./ha): 0%
- Herbicidal action 28 DAT against Galium aparine ([16]; 90 g of a.i./ha): 20%
- Herbicidal action 14 DAT against Galium aparine ([16]; (Z119) post-emergence, g of a.i./ha by row: 1, 30, 1 + 30): 30%
- Herbicidal action 28 DAT against Galium aparine ([16]; (Z119) post-emergence, g of a.i./ha: 16, 4, 30, 16 + 30, 4 + 30): 0%
- Herbicidal action 28 DAT against Alopecurus myosuroides ([17]; (Z61) post-emergence, g of a.i./ha by row: 16, 4, 1, 270, 90, 16 + 270, 4 + 270, 4 + 90, 1 + 270, 1 + 90, 90 g of a.i./ha): 15%
- Herbicidal action 28 DAT against Alopecurus myosuroides ([17]; (Z61) post-emergence, g of a.i./ha by row: 16, 4, 1, 270, 90, 16 + 270, 4 + 270, 4 + 90, 1 + 270, 1 + 90, 270 g of a.i./ha): 20%
- Herbicidal action 14 DAT against Alopecurus myosuroides [17, 19]: 15%
- Herbicidal action 14 DAT against Alopecurus myosuroides [17, 20]: 20%
- Herbicidal action 28 DAT against Alopecurus myosuroides ([17]; (Z119) post-emergence, g of a.i./ha by row: 16, 1, 270, 90, 30, 16 + 270, 16 + 90, 16 + 30, 1 + 270, 1 + 90): 0%
- Herbicidal action 14 DAT against Alopecurus myosuroides ([17]; (Z119) post-emergence, g of a.i./ha: 16, 1, 270, 16 + 270, 1 + 270): 10%
- Herbicidal action against Setaria viridis ([18]; 30 g of a.i./ha): 10%
- Herbicidal action against Setaria viridis ([18]; 90 g of a.i./ha): 10%
- Herbicidal action against Setaria viridis ([18]; 270 g of a.i./ha): 15%
